{"source": "paper PMC12308805", "about": "“Ultrahigh-Throughput Virtual Screening Strategies against PPI Targets: A Case Study of STAT Inhibitors” (Journal of Chemical Information and Modeling, 2025)", "origin": "cited, not measured here", "note": "Square brackets hold non-standard residues; d marks the D form. Peptide text beside a SMILES is read from it. pY = N[C@@H](Cc1ccc(OP(=O)(O)O)cc1)C(=O)O", "data": [{"test_system": "STAT3", "conditions": "cited from earlier work", "values": [{"smiles": "CC(C)C[C@H](NC(=O)/C=C/c1ccc(OP(=O)(O)O)cc1)C(=O)N1C[C@H]2C[C@H]2[C@H]1C(=O)N[C@H](C)CCC(N)=O", "note": "[CHEMBL576784]", "Type (known STAT3 active)": "Active"}]}, {"test_system": "STAT3", "conditions": "sheet 6QHD_actives_decoys, retrospective screening set for STAT3 SH2 domain (PDB 6QHD); decoys are presumed inactives, not tested; ref DUD-E; cited from earlier work", "values": [{"smiles": "CC(=O)O[C@H]1[C@@H](O)[C@H](CO)O[C@H](O[C@@H](C/N=C/c2c(O)cc(O)c3ccccc23)[C@@H](CO)O[C@H](O)C/N=C/c2c(O)cc(O)c3ccccc23)[C@@H]1O", "note": "[Decoy742]", "Type": "Inactive (Decoy)"}, {"smiles": "C[C@H]1CN(S(=O)(=O)c2ccc(C(=O)Nc3ccc(S(=O)(=O)Nc4nccs4)cc3)cc2)C[C@H](C)O1", "note": "[Decoy868]", "Type": "Inactive (Decoy)"}, {"smiles": "O=c1ccn([C@@H]2O[C@H](CO[P@](=O)(O)O[P@@](=O)(O)O[C@H]3OC[C@@H](O)[C@H](O)[C@H]3O)[C@@H](O)[C@H]2O)c(=O)[nH]1", "note": "[Decoy865]", "Type": "Inactive (Decoy)"}, {"smiles": "CC(C)CN(C(=O)CN(C)C(=O)Cc1ccccc1Cl)c1c(N)n(CC(C)C)c(=O)[nH]c1=O", "note": "[Decoy755]", "Type": "Inactive (Decoy)"}, {"smiles": "CCCCOC(=O)C1=C(C)Nc2nc(SCc3ccccc3Cl)nn2[C@@H]1c1ccccc1C(=O)O", "note": "[Decoy762]", "Type": "Inactive (Decoy)"}, {"smiles": "COC(=O)c1[nH]c(C)c(C(=O)C2=C(O)C(=O)N(CCN3CCOCC3)[C@H]2c2cc(OC)c(OC)c(OC)c2)c1C", "note": "[Decoy873]", "Type": "Inactive (Decoy)"}, {"smiles": "CCc1ccc2[nH]c(=O)c(CN(CCc3ccc(OC)c(OC)c3)Cc3nnnn3Cc3ccccc3)cc2c1", "note": "[Decoy770]", "Type": "Inactive (Decoy)"}, {"smiles": "CC(=O)SCCNC(=O)CCNC(=O)[C@@H](O)C(C)(C)CO[P@](=O)(O)O[P@](=O)(O)OC[C@H]1O[C@@H](n2cnc3c(N)ncnc32)[C@@H](O)[C@H]1OP(=O)(O)O", "note": "[Decoy854]", "Type": "Inactive (Decoy)"}, {"smiles": "CC1(C)[C@]2(C(=O)NCCN(CCNC(=O)[C@]34CC[C@](C)(C(=O)C3)C4(C)C)CCNC(=O)[C@]34CC[C@](C)(C(=O)C3)C4(C)C)CC[C@@]1(C)C(=O)C2", "note": "[Decoy839]", "Type": "Inactive (Decoy)"}, {"smiles": "Cc1ccc(C)c(NC(=O)CCC(=O)N/N=C(/S)NC(=O)c2ccccc2[N+](=O)[O-])c1", "note": "[Decoy948]", "Type": "Inactive (Decoy)"}, {"smiles": "O=C(O)CCNS(=O)(=O)c1ccc(NCCc2ccc(C(F)(F)F)cc2)c([N+](=O)[O-])c1", "note": "[Decoy891]", "Type": "Inactive (Decoy)"}, {"smiles": "Cc1nn(C)cc1CN1CCN(C(=S)Nc2ccc(S(=O)(=O)Nc3ncccn3)cc2)CC1", "note": "[Decoy788]", "Type": "Inactive (Decoy)"}, {"smiles": "O=c1cc(-c2ccc(O)c(O)c2)oc2cc(O[C@@H]3O[C@H](CO[C@@H]4OC[C@@H](O)[C@@H](O)[C@H]4O)[C@@H](O)[C@H](O)[C@H]3O)cc(O)c12", "note": "[Decoy795]", "Type": "Inactive (Decoy)"}, {"smiles": "N[C@@H](CCC(=O)N[C@@H](CSCCN(CCSC[C@H](NC(=O)CC[C@H](N)C(=O)O)C(=O)NCC(=O)O)[P@](N)(=O)O)C(=O)NCC(=O)O)C(=O)O", "note": "[Decoy879]", "Type": "Inactive (Decoy)"}, {"smiles": "CCOC(=O)c1ccc(NC(=O)C(=O)NCc2ccc(/C=C3/C(=O)N(c4ccc(C)c(Cl)c4)C(C)=C3C(=O)OC)o2)cc1", "note": "[Decoy845]", "Type": "Inactive (Decoy)"}]}, {"test_system": "STAT3", "conditions": "sheet 6QHD_actives_decoys; known STAT3 actives of the retrospective screening set; ref ChEMBL / literature; cited from earlier work", "values": [{"smiles": "CNC(=O)[C@H](CCC(N)=O)NC(=O)[C@@H]1CCCN1C(=O)[C@H](CC(C)C)NC(=O)[C@H](Cc1ccc(OP(=O)(O)O)cc1)NC(C)=O", "note": "[CHEMBL370095] (Ac-[pY]LPQ-NHMe)", "Type (known STAT3 active)": "Active"}]}, {"test_system": "STAT3", "conditions": "sheet 6QHD_actives_decoys; retrospective screening set for STAT3 SH2 domain (PDB 6QHD); […]; ref DUD-E; cited from earlier work", "values": [{"smiles": "Cc1cc(NS(=O)(=O)c2ccc(NC(=O)CCCCC(=O)Nc3ccc(S(=O)(=O)Nc4cc(C)on4)cc3)cc2)no1", "note": "[Decoy592]", "Type": "Inactive (Decoy)"}, {"smiles": "NCCNC(=O)Cc1ccc(NC(=O)Cc2ccc(Nc3ncnc4c3ncn4[C@@H]3O[C@H](CO)[C@@H](O)[C@H]3O)cc2)cc1", "note": "[Decoy655]", "Type": "Inactive (Decoy)"}, {"smiles": "Cc1ccnc(NS(=O)(=O)c2ccc(NC(=O)c3cc([N+](=O)[O-])c(Cl)c([N+](=O)[O-])c3)cc2)n1", "note": "[Decoy530]", "Type": "Inactive (Decoy)"}, {"smiles": "COc1ccc(NC(=O)c2cc(C)nc3c2c(C)nn3C)cc1NS(=O)(=O)c1ccc(F)cc1", "note": "[Decoy619]", "Type": "Inactive (Decoy)"}, {"smiles": "COc1cc(/C=N\\NC(=O)N/N=C/c2cc(OC)c(O)c([N+](=O)[O-])c2)cc([N+](=O)[O-])c1O", "note": "[Decoy599]", "Type": "Inactive (Decoy)"}, {"smiles": "COC1=C[C@]23CCCN2CCc2cc4c(cc2[C@@H]3[C@@H]1OC(=O)[C@@](O)(CCCC(C)(C)O)CC(=O)O)OCO4", "note": "[Decoy432]", "Type": "Inactive (Decoy)"}]}, {"test_system": "STAT3", "conditions": "sheet 6QHD_actives_decoys; retrospective screening set for STAT3 SH2 domain (PDB 6QHD); decoys generated with DUD-E and presumed inactive, not tested; ref DUD-E; cited from earlier work", "values": [{"smiles": "Cc1ccc(S(=O)(=O)NCCN(CCN(CCNS(=O)(=O)c2ccc(C)cc2)S(=O)(=O)c2ccc(C)cc2)S(=O)(=O)c2ccc(C)cc2)cc1", "note": "[Decoy653]", "Type": "Inactive (Decoy)"}, {"smiles": "Cc1nnc(SCC2=C(C(=O)NCC(C)C)N3C(=O)[C@H](NC(=O)c4nn(C)c(C)c4Br)[C@H]3SC2)s1", "note": "[Decoy523]", "Type": "Inactive (Decoy)"}, {"smiles": "C=CCSc1nnc(/N=C(\\O)CSc2nnc(N/N=C/c3c(O)ccc4ccccc34)n2N)s1", "note": "[Decoy343]", "Type": "Inactive (Decoy)"}, {"smiles": "COC(=O)c1ccc(C(=O)OC)c(NC(=O)c2ccc(C(=O)Nc3cc(C(=O)OC)ccc3C(=O)OC)cc2)c1", "note": "[Decoy335]", "Type": "Inactive (Decoy)"}, {"smiles": "CC(=O)OC[C@@H]1O[C@H](O)[C@H](OC(C)=O)[C@H](OC(C)=O)[C@@H]1O[C@@H]1O[C@H](COC(C)=O)[C@@H](O)[C@H](OC(C)=O)[C@@H]1OC(C)=O", "note": "[Decoy413]", "Type": "Inactive (Decoy)"}, {"smiles": "COc1ccccc1NS(=O)(=O)c1cccc(C(=O)NNC(=O)CCn2c(C)csc2=O)c1", "note": "[Decoy725]", "Type": "Inactive (Decoy)"}, {"smiles": "CCSc1ccccc1NC(=O)CSc1n[nH]c(N/N=C/c2cc([N+](=O)[O-])ccc2O)n1", "note": "[Decoy446]", "Type": "Inactive (Decoy)"}, {"smiles": "CCCCCN(C(=O)Cn1c(=O)n(CC)c(=O)c2ccccc21)c1c(N)n(CCCC)c(=O)[nH]c1=O", "note": "[Decoy603]", "Type": "Inactive (Decoy)"}, {"smiles": "CCCCC(=O)Nc1ccc(NC(=S)NC(=O)c2ccc(OCC)c([N+](=O)[O-])c2)cc1OC", "note": "[Decoy467]", "Type": "Inactive (Decoy)"}, {"smiles": "COC(=O)CCSCCO[C@@H]1O[C@H](CO)[C@@H](O[C@@H]2O[C@H](CO)[C@@H](O)[C@@H](O)[C@H]2O)[C@H](O)[C@@H]1NC(C)=O", "note": "[Decoy353]", "Type": "Inactive (Decoy)"}, {"smiles": "CC(=O)OC[C@@H](OC(C)=O)[C@H](OC(C)=O)[C@H](OC(C)=O)[C@H](OC(C)=O)[C@@H]1N[C@H](C(=O)O)C(C)(C)S1", "note": "[Decoy590]", "Type": "Inactive (Decoy)"}, {"smiles": "CC(=O)N[C@@H]1[C@@H](OC(C)=O)[C@H](OC(C)=O)[C@@H](COC(C)=O)O[C@H]1Sc1nnc(COc2ccccc2C)n1C1CCCC1", "note": "[Decoy405]", "Type": "Inactive (Decoy)"}, {"smiles": "CC(=O)N[C@@H]1[C@@H](O)[C@H](O[C@@H]2O[C@H](CO)[C@H](O)[C@H](O[C@@]3(C(=O)O)C[C@H](O)[C@@H](NC(C)=O)[C@H]([C@H](O)[C@H](O)CO)O3)[C@H]2O)[C@@H](CO)O[C@H]1O", "note": "[Decoy636]", "Type": "Inactive (Decoy)"}, {"smiles": "COc1cc(/C=N/NC(=O)CC(=O)N/N=C/c2cc(Br)c(O)c(OC)c2)cc(Br)c1O", "note": "[Decoy510]", "Type": "Inactive (Decoy)"}, {"smiles": "O=C(CCN(Cc1ccco1)S(=O)(=O)c1ccc(Cl)cc1)NNC(=O)Nc1ccc(OC(F)(F)F)cc1", "note": "[Decoy374]", "Type": "Inactive (Decoy)"}, {"smiles": "CCOC(=O)c1c(NC(=O)c2ccc([N+](=O)[O-])cc2)sc2c(OCCN(CC)CC)c(Br)ccc12", "note": "[Decoy671]", "Type": "Inactive (Decoy)"}, {"smiles": "CC(C)(C)c1cc(Br)cc([C@@H](CN(C(=O)CN)C(=O)c2cc(O)cc(N=C3NCC(O)CN3)c2)C(=O)O)c1", "note": "(some centres unmarked) [Decoy598]", "Type": "Inactive (Decoy)"}, {"smiles": "CCCNC(=O)CN(C)C(=O)c1ccc(N2CCNCC2)c(NS(=O)(=O)c2ccc(CCC)cc2)c1", "note": "[Decoy450]", "Type": "Inactive (Decoy)"}]}]}
